Reference: patent publication US20200407398A1, “Short Proline-Rich Lipopeptide Potentiates Minocycline and Rifampicin Against Multidrug-and Extensively Drug-Resistant Pseudomonas Aeruginosa” (priority 2018, published 2020)
Peptide text beside a SMILES is read from it. * marks the point of attachment. Lauroyl = CCCCCCCCCCCC(=O)*

What was measured:
[1] = test system: P. aeruginosa 100036 (MDR/XDR); experiment: microbe, parasite or virus in culture; conditions: P. aeruginosa 100036
Method: (§1) We evaluated the activity of SPRLPs in combination with fifteen clinically-used antibiotics against P. aeruginosa. Antibiotics tested included fluoroquinolones (moxifloxacin, ciprofloxacin and levofloxacin), aminoglycosides (gentamicin, tobramycin and amikacin), cephalosporins (ceftazidime and cefotaxime), carbapenems (meropenem and doripenem), aztreonam, rifampicin, minocycline, colistin and fosfomycin. The SPRLPs were screened initially at a fixed concentration of 8 μg/mL (5 μM) in combination with antibiotics against wild-type P. aeruginosa PAO1. We assessed potentiation by at least a four-fold absolute MIC reduction of the antibiotic, after which synergism was further validated by a conventional checkerboard assay. A fractional inhibitory concentration (FIC) index of ≤0.5, 0.5<x≤4 or >4 was interpreted as synergistic, indifferent or antagonistic interaction, respectively (31). FIC index was obtained by adding the FIC values of the antibiotic and the SPRLP adjuvant. FIC of antibiotics was calculated by dividing the MIC of the antibiotic in the presence of the adjuvant by the MIC of the antibiotic alone. Similarly, the FIC of adjuvant was calculated via dividing the MIC of the adjuvant in the presence of the antibiotic by the MIC of the adjuvant alone.
(§2) Isolates used in this study were either obtained from the American Type Culture Collection (ATCC), the Canadian National Intensive Care Unit (CAN-ICU) surveillance study (27) or the Canadian Ward Surveillance (CANWARD) study (28). Clinical isolates belonging to the CAN-ICU and CANWARD studies were recovered from patients suffering a presumed infectious disease entering or admitted in a participating medical center across Canada during the time of study. MDR P. aeruginosa strains in this study refer to those that are resistant to aminoglycosides, fluoroquinolones, cephalosporins, and carbapenems while XDR strains are those that are resistant to aminoglycosides, fluoroquinolones, cephalosporins, carbapenems, aztreonam and penicillin+β-lactamase inhibitor combination (39, 40).
(§3) Microbroth dilution susceptibility test following the Clinical and Laboratory Standards Institute (CLSI) guidelines (32) was performed to assess the in vitro antibacterial activity of SPRLPs. Overnight grown bacterial cultures were diluted in saline to achieve a 0.5 McFarland turbidity, followed by 1:50 dilution in Mueller-Hinton broth (MHB) for inoculation to a final concentration of 5×10^5 colony forming units/mL. The assay was done on a 96-well plate to which the agents of interest were 2-fold serially diluted in MHB and incubated with equal volumes of inoculum at 37° C. for 18 hours. MIC was determined as the lowest concentration to inhibit visible bacterial growth in form of turbidity, which was confirmed using EMax Plus microplate reader (Molecular Devices, USA) at a wavelength of 590 nm. The well containing MHB broth with or without bacterial cells was used as positive or negative control, respectively.
(§4) The assay was performed on a 96-well plate, to which the agents of interest was 2-fold serially diluted in working MHB. Prior to serial dilution, SPRLP was added to the working MHB media so that a fixed final concentration of 8 μg/mL (5 μM) SPRLP per well was achieved. To ensure that the assay was working, the MIC determination test of the studied antibiotic (without SPRLP) was included on the same plate. Similar MIC results between the assay comparator and an independent MIC determination test (on a different plate) ensured validity of the synergy test. Overnight grown bacterial cultures were diluted in saline to 0.5 McFarland turbidity, followed by 1:50 dilution in MHB (without SPRLP) and inoculation into each well to a final concentration of approximately 5×10^5 colony forming units/mL. Wells containing only MHB (without SPRLP) with or without bacterial cells were used as positive or negative control, respectively.

[2] = test system: P. aeruginosa 101243 (colistin-resistant, MDR/XDR); experiment: microbe, parasite or virus in culture; conditions: for Potentiation / FIC index: P. aeruginosa 101243 (colistin-resistant)
Method: as §1, §2, §3, §4

[3] = test system: P. aeruginosa 101885 (MDR/XDR); experiment: microbe, parasite or virus in culture; conditions: for Potentiation / FIC index: P. aeruginosa 101885
Method: as §1, §2, §3, §4

[4] = test system: P. aeruginosa 259-96918 (MDR/XDR); experiment: microbe, parasite or virus in culture; conditions: P. aeruginosa 259-96918
Method: as §1, §2, §3, §4

[5] = test system: P. aeruginosa 260-97103 (MDR/XDR); experiment: microbe, parasite or virus in culture; conditions: for Potentiation / FIC index: P. aeruginosa 260-97103
Method: as §1, §2, §3, §4

[6] = test system: P. aeruginosa 262-101856 (MDR/XDR); experiment: microbe, parasite or virus in culture; conditions: P. aeruginosa 262-101856
Method: as §1, §2, §3, §4

[7] = test system: P. aeruginosa 264-104354 (MDR/XDR); experiment: microbe, parasite or virus in culture; conditions: P. aeruginosa 264-104354
Method: as §1, §2, §3, §4

[8] = test system: P. aeruginosa 91433 (colistin-resistant, MDR/XDR); experiment: microbe, parasite or virus in culture; conditions: P. aeruginosa 91433 (colistin-resistant)
Method: as §1, §2, §3, §4

[9] = test system: wild-type and MDR/XDR P. aeruginosa clinical isolates
[10] = antibiotic or lipopeptide alone
[11] = degree of minocycline potentiation in the presence of 8 μg/mL (5 μM) lipopeptide
[12] = degree of rifampicin potentiation in the presence of 8 μg/mL (5 μM) lipopeptide
[13] = lipopeptide in combination with minocycline (MIN)
[14] = lipopeptide in combination with rifampicin (RMP)
[15] = checkerboard assay, P. aeruginosa

SMILES: CCCCCCCCCCCC(=O)N1CCC[C@H]1C(=O)N[C@@H](CCCNC(=N)N)C(=O)N1CCC[C@H]1C(=O)N[C@@H](CCCNC(=N)N)C(=O)N1CCC[C@H]1C(=O)N[C@@H](CCCNC(=N)N)C(=O)N1CCC[C@H]1C(N)=O [Compound C12-PRP, CH3(CH2)10CO-PRPRPRP-NH2] (Lauroyl-PRPRPRP-NH2)
- MIC (agent alone) [1, 10]: >128 µg/mL
- Potentiation [1, 11]: 4-fold
- Potentiation [1, 12]: 16-fold
- MIC (agent alone) ([2]; 101243 (colistin-resistant, MDR/XDR)): 128 µg/mL
- Potentiation [2, 11]: 4-fold
- Potentiation [2, 12]: 32-fold
- FIC index [2, 13]: 0.31
- FIC index [2, 14]: 0.09
- MIC (agent alone) ([3]; 101885 (MDR/XDR)): 64 µg/mL
- Potentiation [3, 11]: 4-fold
- Potentiation [3, 12]: 8-fold
- FIC index [3, 13]: 0.37
- FIC index [3, 14]: 0.25
- MIC (agent alone) [4, 10]: >128 µg/mL
- Potentiation [4, 11]: 8-fold
- Potentiation [4, 12]: 8-fold
- MIC (agent alone) ([5]; 260-97103 (MDR/XDR)): 128 µg/mL
- Potentiation [5, 11]: 16-fold
- Potentiation [5, 12]: 8-fold
- FIC index [5, 13]: 0.12
- FIC index [5, 14]: 0.16
- Absolute MIC MIN ([6]; MIC of minocycline in the presence of 8 μg/mL (5 μM) lipopeptide): 16 µg/mL
- MIC (agent alone) [6, 10]: >128 µg/mL
- Potentiation [6, 11]: 4-fold
- Potentiation [6, 12]: none
- MIC (agent alone) [7, 10]: >128 µg/mL
- Potentiation [7, 11]: 16-fold
- Potentiation [7, 12]: 16-fold
- MIC (agent alone) [8, 10]: >128 µg/mL
- Potentiation [8, 11]: 4-fold
- Potentiation [8, 12]: 16-fold
- strains in which MIC of rifampicin reached susceptibility breakpoint ([9]; 8 μg/mL (5 μM) lipopeptide, breakpoint ≤1 μg/mL (CLSI, Staphylococcus spp.)): five out of nine
- strains in which MIC of minocycline was reduced below susceptibility breakpoint ([9]; 8 μg/mL (5 μM) lipopeptide, breakpoint ≤4 μg/mL (CLSI, Acinetobacter spp.)): seven out of nine
- interaction with minocycline (in words) [9, 15]: strongly synergistic
- interaction with rifampicin (in words) [9, 15]: significant potentiation
- MIC (lipopeptide alone) ([9]; wild-type and clinical isolates of P. aeruginosa): inactive
